Where two headings read alike, the source gives them in different places.
Experiments:
CHO cells = assay: Protein translation assay (puromycin incorporation in CHO cells, unstressed or Tg-stressed); format: cell-based, Chinese hamster; settings: Cricetulus griseus, media alone 100%
Procedure, shortened: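 CHO cells pretreated 2 h with 1 μM compound (unstressed), or 1 h with 100 nM or 1 μM then co-treated with 300 nM Tg. Pulse-labelled with 10 μg/ml puromycin for 30 min, then anti-puromycin western blot with densitometry. Unstressed values normalized to media alone (100%); stressed recovery scaled between media alone (100%) and Tg alone (0%).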

[1] = tested on: 19-month old male C57Bl/6J mice; assay: Learning memory in aged mice (8-arm radial water maze, hippocampal ATF4); format: in vivo, mouse; settings: 5 mg/kg intraperitoneally, versus vehicle
From the text: Wild type 19-month old male C57Bl/6J mice were used in an 8-arm radial water maze (RAWM) to measure the hippocampal-mediated learning memory. The maze involved a pool 118.5 cm in diameter and 25 cm high with 8 arms, each 41 cm in length, and an escape platform that could be moved. The pool was filled with water that was rendered opaque by adding white paint (Crayola, 54-2128-053). The escape platform remains hidden during the experiment. Visual cues were placed around the room such that they were visible to animals exploring the maze. […]
Behavioral tests were recorded and scored using a video tracking and analysis setup (Ethovision XT 8.5, Noldus Information Technology). The program automatically analyzed the number of incorrect arm entries (termed number of errors) made per trial. […]
At the end of the behavioral test, animals were sacrificed and the hippocampi were extracted and immediately frozen in liquid nitrogen and then stored at −80° C. […] Protein concentration in supernatants was determined using BCA Protein Assay Kit (Pierce). […]
ATF4 (11815) antibody (Cell Signaling Technologies) and β-actin (Sigma-Aldrich) antibodies were used as primary antibodies. […] Quantification of protein bands was done by densitometry using ImageJ software.

O=C(COc1ccc(Cl)cc1)N[C@H]1CC[C@H](NC[C@@H](O)COc2ccc(Cl)cc2)CC1 (single isomer, unassigned) [Compound 3, (+)-2-(4-chlorophenoxy)-N-(4-((3-(4-chlorophenoxy)-2-hydroxypropyl)amino)cyclohexyl)acetamide]
activity at 0.1 µM (CHO cells; CHO cells stressed with 300 nM Tg, Tg alone 0%, read-out: % Recovery of protein expression (100 nM test compound)): 69.4%
activity at 1 µM (CHO cells; CHO cells stressed with 300 nM Tg, Tg alone 0%, read-out: % Recovery of protein expression (1 μM test compound)): 155%
activity at 1 µM (CHO cells; unstressed CHO cells, 2 h, read-out: % Protein expression relative to untreated (1 μM test compound)): 162%
ATF4 expression normalized to β-actin in hippocampi [1]: lower levels of ATF4 expression compared with vehicle-treated animals
RAWM task performance (learning memory) [1]: performed better than vehicle-treated animals
